Experimental data reported in ChEMBL document CHEMBL1201861, “Genomics of Drug Sensitity in Cancer screening data, Wellcome Trust Sanger Institute”.

Legend:
SCLC-21H = test: cells; format: functional, cell-based, Homo sapiens; details: Homo sapiens, SCLC-21H
Description: SANGER: Inhibition of human SCLC-21H cell growth in a cell viability assay.

NCI-H2141 = test: cells; format: functional, cell-based, Homo sapiens; details: Homo sapiens, NCI-H2141
Description: SANGER: Inhibition of human NCI-H2141 cell growth in a cell viability assay.

TE-15 = test: cells; format: functional, cell-based, Homo sapiens; details: Homo sapiens, TE-15
Description: SANGER: Inhibition of human TE-15 cell growth in a cell viability assay.

EVSA-T = test: cells; format: functional, cell-based, Homo sapiens; details: Homo sapiens, EVSA-T
Description: SANGER: Inhibition of human EVSA-T cell growth in a cell viability assay.

SIMA = test: cells; format: functional, cell-based, Homo sapiens; details: Homo sapiens, SIMA
Description: SANGER: Inhibition of human SIMA cell growth in a cell viability assay.

TUR = test: cells; format: functional, cell-based, Homo sapiens; details: Homo sapiens, TUR
Description: SANGER: Inhibition of human TUR cell growth in a cell viability assay.

CHP-126 = test: cells; format: functional, cell-based, Homo sapiens; details: Homo sapiens, CHP-126
Description: SANGER: Inhibition of human CHP-126 cell growth in a cell viability assay.

REH = test: cells; format: functional, cell-based, Homo sapiens; details: Homo sapiens, REH
Description: SANGER: Inhibition of human REH cell growth in a cell viability assay.

NCI-H2171 = test: cells; format: functional, cell-based, Homo sapiens; details: Homo sapiens, NCI-H2171
Description: SANGER: Inhibition of human NCI-H2171 cell growth in a cell viability assay.

NCCIT = test: SANGER: Inhibition of human NCCIT cell growth in a cell viability assay.; format: functional, cell-based; details: Homo sapiens, NCCIT
L-540 = test: cells; format: functional, cell-based, Homo sapiens; details: Homo sapiens, L-540
Description: SANGER: Inhibition of human L-540 cell growth in a cell viability assay.

PF-382 = test: cells; format: functional, cell-based, Homo sapiens; details: Homo sapiens, PF-382
Description: SANGER: Inhibition of human PF-382 cell growth in a cell viability assay.

GP5d = test: cells; format: functional, cell-based; details: Homo sapiens
Description: SANGER: Inhibition of human GP5d cell growth in a cell viability assay.

NCI-H1792 = test: cells; format: functional, cell-based; details: Homo sapiens
Description: SANGER: Inhibition of human NCI-H1792 cell growth in a cell viability assay.

NCI-H1437 = test: cells; format: functional, cell-based; details: Homo sapiens
Description: SANGER: Inhibition of human NCI-H1437 cell growth in a cell viability assay.

NCI-H1755 = test: cells; format: functional, cell-based; details: Homo sapiens
Description: SANGER: Inhibition of human NCI-H1755 cell growth in a cell viability assay.

NCI-H460 = test: cells; format: functional, cell-based; details: Homo sapiens
Description: SANGER: Inhibition of human NCI-H460 cell growth in a cell viability assay.

H4 = test: cells; format: functional, cell-based; details: Homo sapiens
Description: SANGER: Inhibition of human H4 cell growth in a cell viability assay.

HMV-2 cell line = test: cells; format: functional, cell-based; details: Homo sapiens
Description: SANGER: Inhibition of human HMV-II cell growth in a cell viability assay.

HGC-27 = test: cells; format: functional, cell-based; details: Homo sapiens
Description: SANGER: Inhibition of human HGC-27 cell growth in a cell viability assay.

SW1783 = test: cells; format: functional, cell-based; details: Homo sapiens
Description: SANGER: Inhibition of human SW1783 cell growth in a cell viability assay.

NCI-H2122 = test: cells; format: functional, cell-based; details: Homo sapiens
Description: SANGER: Inhibition of human NCI-H2122 cell growth in a cell viability assay.

HO-1-N-1 = test: cells; format: functional, cell-based; details: Homo sapiens
Description: SANGER: Inhibition of human HO-1-N-1 cell growth in a cell viability assay.

BEN = test: cells; format: functional, cell-based; details: Homo sapiens
Description: SANGER: Inhibition of human BEN cell growth in a cell viability assay.

NCI-H2087 = test: cells; format: functional, cell-based; details: Homo sapiens
Description: SANGER: Inhibition of human NCI-H2087 cell growth in a cell viability assay.

HSC-2 = test: cells; format: functional, cell-based; details: Homo sapiens
Description: SANGER: Inhibition of human HSC-2 cell growth in a cell viability assay.

NCI-H1651 = test: cells; format: functional, cell-based; details: Homo sapiens
Description: SANGER: Inhibition of human NCI-H1651 cell growth in a cell viability assay.

SiHa = test: cells; format: functional, cell-based; details: Homo sapiens
Description: SANGER: Inhibition of human SiHa cell growth in a cell viability assay.

HT-1376 = test: cells; format: functional, cell-based; details: Homo sapiens
Description: SANGER: Inhibition of human HT-1376 cell growth in a cell viability assay.

CAL-33 = test: cells; format: functional, cell-based; details: Homo sapiens
Description: SANGER: Inhibition of human CAL-33 cell growth in a cell viability assay.

ESS-1 = test: cells; format: functional, cell-based; details: Homo sapiens
Description: SANGER: Inhibition of human ESS-1 cell growth in a cell viability assay.

NCI-H661 = test: cells; format: functional, cell-based; details: Homo sapiens
Description: SANGER: Inhibition of human NCI-H661 cell growth in a cell viability assay.

KYSE-520 cell line = test: cells; format: functional, cell-based; details: Homo sapiens
Description: SANGER: Inhibition of human KYSE-520 cell growth in a cell viability assay.

ChaGo-K-1 = test: cells; format: functional, cell-based; details: Homo sapiens
Description: SANGER: Inhibition of human ChaGo-K-1 cell growth in a cell viability assay.

SCC-9 = test: cells; format: functional, cell-based; details: Homo sapiens
Description: SANGER: Inhibition of human SCC-9 cell growth in a cell viability assay.

G-402 = test: cells; format: functional, cell-based; details: Homo sapiens
Description: SANGER: Inhibition of human G-402 cell growth in a cell viability assay.

A-427 = test: cells; format: functional, cell-based; details: Homo sapiens
Description: SANGER: Inhibition of human A427 cell growth in a cell viability assay.

HCT-116 = test: cells; format: functional, cell-based; details: Homo sapiens
Description: SANGER: Inhibition of human HCT-116 cell growth in a cell viability assay.

M14 = test: cells; format: functional, cell-based; details: Homo sapiens
Description: SANGER: Inhibition of human M14 cell growth in a cell viability assay.

U2OS = test: cells; format: functional, cell-based, U-2-OS; details: Homo sapiens
Description: SANGER: Inhibition of human U-2-OS cell growth in a cell viability assay.

NCI-H28 = test: cells; format: functional, cell-based; details: Homo sapiens
Description: SANGER: Inhibition of human NCI-H28 cell growth in a cell viability assay.

SKG-IIIa = test: cells; format: functional, cell-based; details: Homo sapiens
Description: SANGER: Inhibition of human SKG-IIIa cell growth in a cell viability assay.

Huh-7 = test: cells; format: functional, cell-based; details: Homo sapiens
Description: SANGER: Inhibition of human HuH-7 cell growth in a cell viability assay.

SK-MES-1 = test: cells; format: functional, cell-based; details: Homo sapiens
Description: SANGER: Inhibition of human SK-MES-1 cell growth in a cell viability assay.

NCI-H2452 = test: cells; format: functional, cell-based; details: Homo sapiens
Description: SANGER: Inhibition of human NCI-H2452 cell growth in a cell viability assay.

LU-99A = test: cells; format: functional, cell-based; details: Homo sapiens
Description: SANGER: Inhibition of human LU-99A cell growth in a cell viability assay.

T84 = test: cells; format: functional, cell-based; details: Homo sapiens
Description: SANGER: Inhibition of human T84 cell growth in a cell viability assay.

SK-LU-1 = test: cells; format: functional, cell-based; details: Homo sapiens
Description: SANGER: Inhibition of human SK-LU-1 cell growth in a cell viability assay.

CAPAN-1 = test: cells; format: functional, cell-based; details: Homo sapiens
Description: SANGER: Inhibition of human CAPAN-1 cell growth in a cell viability assay.

BXPC-3 = test: cells; format: functional, cell-based; details: Homo sapiens
Description: SANGER: Inhibition of human BxPC-3 cell growth in a cell viability assay.

T98G = test: cells; format: functional, cell-based; details: Homo sapiens
Description: SANGER: Inhibition of human T98G cell growth in a cell viability assay.

GCT = test: cells; format: functional, cell-based; details: Homo sapiens
Description: SANGER: Inhibition of human GCT cell growth in a cell viability assay.

MFE-280 = test: cells; format: functional, cell-based; details: Homo sapiens
Description: SANGER: Inhibition of human MFE-280 cell growth in a cell viability assay.

NB12 = test: cells; format: functional, cell-based; details: Homo sapiens
Description: SANGER: Inhibition of human NB12 cell growth in a cell viability assay.

KYSE-450 = test: cells; format: functional, cell-based; details: Homo sapiens
Description: SANGER: Inhibition of human KYSE-450 cell growth in a cell viability assay.

HPAF-II = test: cells; format: functional, cell-based; details: Homo sapiens
Description: SANGER: Inhibition of human HPAF-II cell growth in a cell viability assay.

RCM-1 = test: cells; format: functional, cell-based; details: Homo sapiens
Description: SANGER: Inhibition of human RCM-1 cell growth in a cell viability assay.

SK-MEL-28 = test: cells; format: functional, cell-based; details: Homo sapiens
Description: SANGER: Inhibition of human SK-MEL-28 cell growth in a cell viability assay.

SIG-M5 = test: cells; format: functional, cell-based, Homo sapiens; details: Homo sapiens, SIG-M5
Description: SANGER: Inhibition of human SIG-M5 cell growth in a cell viability assay.

## Cc1ccc(NC(=O)c2ccc(CN3CCN(C)CC3)cc2)cc1Nc1nccc(-c2cccnc2)n1 [IMATINIB]
SCLC-21H
  IC50: > 2 µM
NCI-H2141
  IC50: > 2 µM
TE-15
  IC50: > 2 µM
EVSA-T
  IC50: > 2 µM
SIMA
  IC50: > 2 µM
TUR
  IC50: > 2 µM
CHP-126
  IC50: > 2 µM
REH
  IC50: > 2 µM
NCI-H2171
  IC50: > 2 µM
NCCIT
  IC50: > 2 µM
L-540
  IC50: > 2 µM
PF-382
  IC50: > 2 µM

## CO[C@@H]1[C@H](N(C)C(=O)c2ccccc2)C[C@H]2O[C@]1(C)n1c3ccccc3c3c4c(c5c6ccccc6n2c5c31)C(=O)NC4 [MIDOSTAURIN]
GP5d
  IC50: > 0.512 µM
NCI-H1792
  IC50: 0.331 µM
NCI-H1437
  IC50: > 0.512 µM
NCI-H1755
  IC50: 0.0627 µM
NCI-H460
  IC50: > 0.512 µM
H4
  IC50: 0.14 µM
HMV-2 cell line
  IC50: > 0.512 µM
HGC-27
  IC50: > 0.512 µM
SW1783
  IC50: > 0.512 µM
NCI-H2122
  IC50: 0.323 µM
HO-1-N-1
  IC50: > 0.512 µM
NCCIT
  IC50: > 0.512 µM
BEN
  IC50: > 0.512 µM

## NC1(c2ccc(-c3nc4ccn5c(=O)[nH]nc5c4cc3-c3ccccc3)cc2)CCC1 [MK-2206]
NCI-H2087
  IC50: > 4 µM
GP5d
  IC50: > 4 µM
NCI-H1792
  IC50: > 4 µM
HSC-2
  IC50: > 4 µM
NCI-H1651
  IC50: > 4 µM
NCI-H1437
  IC50: > 4 µM
SiHa
  IC50: > 4 µM
HT-1376
  IC50: > 4 µM
CAL-33
  IC50: > 4 µM
ESS-1
  IC50: > 4 µM
NCI-H1755
  IC50: > 4 µM
NCI-H661
  IC50: > 4 µM
KYSE-520 cell line
  IC50: > 4 µM
ChaGo-K-1
  IC50: > 4 µM
NCI-H460
  IC50: > 4 µM
SCC-9
  IC50: > 4 µM
H4
  IC50: 3.46 µM
G-402
  IC50: 3.71 µM
A-427
  IC50: > 4 µM
HCT-116
  IC50: > 4 µM
M14
  IC50: > 4 µM
U2OS
  IC50: > 4 µM
NCI-H28
  IC50: > 4 µM
HGC-27
  IC50: 0.568 µM
SKG-IIIa
  IC50: > 4 µM
SW1783
  IC50: > 4 µM
Huh-7
  IC50: 3.09 µM
SK-MES-1
  IC50: > 4 µM
NCI-H2452
  IC50: > 4 µM
LU-99A
  IC50: > 4 µM
T84
  IC50: > 4 µM
SK-LU-1
  IC50: > 4 µM
NCI-H2122
  IC50: > 4 µM
CAPAN-1
  IC50: > 4 µM
HO-1-N-1
  IC50: > 4 µM
BXPC-3
  IC50: > 4 µM
T98G
  IC50: > 4 µM
GCT
  IC50: > 4 µM
MFE-280
  IC50: 0.965 µM
NB12
  IC50: > 4 µM
KYSE-450
  IC50: > 4 µM
HPAF-II
  IC50: > 4 µM
BEN
  IC50: > 4 µM
RCM-1
  IC50: > 4 µM

## CS(=O)(=O)N1CCN(Cc2cc3nc(-c4cccc5[nH]ncc45)nc(N4CCOCC4)c3s2)CC1 [PICTILISIB]
NCI-H2087
  IC50: > 4 µM
GP5d
  IC50: > 4 µM
NCI-H1792
  IC50: > 4 µM
HSC-2
  IC50: > 4 µM
NCI-H1651
  IC50: > 4 µM
NCI-H1437
  IC50: > 4 µM
SiHa
  IC50: > 4 µM
HT-1376
  IC50: > 4 µM
CAL-33
  IC50: > 4 µM
ESS-1
  IC50: > 4 µM
NCI-H1755
  IC50: > 4 µM
NCI-H661
  IC50: > 4 µM
KYSE-520 cell line
  IC50: > 4 µM
ChaGo-K-1
  IC50: > 4 µM
NCI-H460
  IC50: > 4 µM
SCC-9
  IC50: > 4 µM
H4
  IC50: 0.851 µM
G-402
  IC50: 1.9 µM
A-427
  IC50: > 4 µM
HCT-116
  IC50: > 4 µM
SK-MEL-28
  IC50: 1.56 µM
M14
  IC50: 3.31 µM
U2OS
  IC50: 3.14 µM
NCI-H28
  IC50: 3.05 µM
HGC-27
  IC50: 0.213 µM
SKG-IIIa
  IC50: 2.66 µM
SW1783
  IC50: > 4 µM
Huh-7
  IC50: 1.21 µM
SK-MES-1
  IC50: 2.01 µM
NCI-H2452
  IC50: > 4 µM
LU-99A
  IC50: > 4 µM
T84
  IC50: > 4 µM
SK-LU-1
  IC50: 2.45 µM
NCI-H2122
  IC50: > 4 µM
CAPAN-1
  IC50: > 4 µM
HO-1-N-1
  IC50: 0.659 µM
BXPC-3
  IC50: > 4 µM
T98G
  IC50: 1.99 µM
GCT
  IC50: > 4 µM
MFE-280
  IC50: 0.418 µM
NB12
  IC50: 2.85 µM
KYSE-450
  IC50: > 4 µM
HPAF-II
  IC50: 3.1 µM
BEN
  IC50: > 4 µM
RCM-1
  IC50: > 4 µM

## CN(C)CCOc1ccc(-c2nc(-c3ccncc3)c(-c3ccc4c(c3)CC/C4=N\O)[nH]2)cc1 [SB590885]
NCI-H2087
  IC50: > 5 µM
GP5d
  IC50: > 5 µM
NCI-H1792
  IC50: > 5 µM
HSC-2
  IC50: > 5 µM
NCI-H1651
  IC50: > 5 µM
NCI-H1437
  IC50: > 5 µM
SiHa
  IC50: > 5 µM
HT-1376
  IC50: > 5 µM
CAL-33
  IC50: > 5 µM
ESS-1
  IC50: > 5 µM
NCI-H1755
  IC50: > 5 µM
NCI-H661
  IC50: > 5 µM
KYSE-520 cell line
  IC50: > 5 µM
ChaGo-K-1
  IC50: > 5 µM
NCI-H460
  IC50: > 5 µM
SCC-9
  IC50: > 5 µM
H4
  IC50: > 5 µM
G-402
  IC50: > 5 µM
A-427
  IC50: > 5 µM
HCT-116
  IC50: > 5 µM
M14
  IC50: 0.0808 µM
U2OS
  IC50: > 5 µM
NCI-H28
  IC50: > 5 µM
HGC-27
  IC50: > 5 µM
SKG-IIIa
  IC50: > 5 µM
SW1783
  IC50: > 5 µM
Huh-7
  IC50: 3.67 µM
SK-MES-1
  IC50: > 5 µM
NCI-H2452
  IC50: > 5 µM
LU-99A
  IC50: > 5 µM
T84
  IC50: > 5 µM
SK-LU-1
  IC50: > 5 µM
NCI-H2122
  IC50: > 5 µM
CAPAN-1
  IC50: > 5 µM
HO-1-N-1
  IC50: > 5 µM
BXPC-3
  IC50: > 5 µM
T98G
  IC50: > 5 µM
GCT
  IC50: > 5 µM
MFE-280
  IC50: > 5 µM
NB12
  IC50: > 5 µM
KYSE-450
  IC50: > 5 µM
HPAF-II
  IC50: > 5 µM
BEN
  IC50: > 5 µM
RCM-1
  IC50: > 5 µM

## COc1cc(N2CCC(N3CCN(C)CC3)CC2)ccc1Nc1ncc(Cl)c(Nc2ccccc2S(=O)(=O)C(C)C)n1 [TAE-684]
SCLC-21H
  IC50: > 2 µM
NCI-H2141
  IC50: > 2 µM
SIG-M5
  IC50: 0.292 µM
TE-15
  IC50: 0.511 µM
EVSA-T
  IC50: > 2 µM
SIMA
  IC50: > 2 µM
TUR
  IC50: > 2 µM
CHP-126
  IC50: 0.86 µM
REH
  IC50: > 2 µM
NCI-H2171
  IC50: > 2 µM
NCCIT
  IC50: > 2 µM
L-540
  IC50: 0.37 µM
PF-382
  IC50: 1.57 µM
